One assay relates to P388. Description: Antitumor activity against Mus musculus (mouse) P388 cells xenografted in Mus musculus (mouse) assessed as increase in survival time relative to control. The class given is functional. The arrangement: concentration or dose not given beside the values.
The next assay has as its system DNA. Particulars: Bos taurus.

Structures are written as SMILES.

Description for DNA: Binding affinity to Bos taurus (calf) thymus DNA assessed as change in melting temperature at drug to DNA base pair ratio 0.25 M

Regarding `CN(C)CCNc1ccc2ncn3c4ccc(O)cc4c(=O)c1c23`, the “Increase in survival time” value in the assay with P388 came to 110%. Further, the ΔTm in the assay with DNA turned out to be 12.3 °C.
`CN(C)CCN(C)c1ccc2nnn3c4ccc(O)cc4c(=O)c1c23`: the “Increase in survival time” value in the assay on P388 turned out to be 10%. Further, in the assay with DNA, the ΔTm stood at 8.1 °C.
As for `CCN(CC)CCNc1ccc2nc(C)n3c4ccc(O)cc4c(=O)c1c23`, in the assay on P388, the “Increase in survival time” value worked out at 185%. Also, the ΔTm in the assay on DNA came out at 15.3 °C.
In the case of `Cc1ccc2c(c1)c(=O)c1c(NCCCN(C)C)ccc3nnn2c31`, in the assay on P388, the “Increase in survival time” value came out at 18%. The ΔTm with DNA worked out at 11.5 °C.
For `CN(C)CCNc1ccc2ncn3c4ccccc4c(=O)c1c23`, in that order: 90% and 9.5 °C.
For `CCN(CC)CCNc1ccc2ncn3c4ccccc4c(=O)c1c23`, the “Increase in survival time” value with P388 was found to be 55%. Besides, the thermal shift (ΔTm) in the assay on DNA was 7.2 °C.
For `CN(C)CCNc1ccc2nnn3c4ccccc4c(=O)c1c23`, in that order: 77% and 9.1 °C.
On to `CCN(CC)CCNc1ccc2ncn3c4ccc(O)cc4c(=O)c1c23` [C-1311], for which the “Increase in survival time” value in the assay on P388 worked out at 93%. Also, the ΔTm with DNA was determined as 13.7 °C.
On to `CCN(CC)CCNc1ccc2ncn3c4ccc(OC)cc4c(=O)c1c23`, for which the “Increase in survival time” value in the assay on P388 was found to be 96%. In the assay on DNA, the ΔTm worked out at 11.5 °C.
As for `CN(C)CCCNc1ccc2ncn3c4ccc(O)cc4c(=O)c1c23`, in the assay with P388, the “Increase in survival time” value turned out to be 120%. In the assay with DNA, the ΔTm came out at 3.5 °C.
For `CN(C)CCNc1ccc2nnn3c4ccc(O)cc4c(=O)c1c23`, in that order: 102% and 13.1 °C.
The like results for `CN(C)CCCCCNc1ccc2ncn3c4ccccc4c(=O)c1c23` were, in that order, 10% and 9.9 °C.
Turning to `CCN(CC)CCCCCNc1ccc2ncn3c4ccc(C)cc4c(=O)c1c23`, the “Increase in survival time” value in the assay on P388 is on record as 20%. In addition, the ΔTm in the assay with DNA stood at 10.5 °C.
For `CN(C)CCCNc1ccc2ncn3c4ccccc4c(=O)c1c23`, the “Increase in survival time” value in the assay with P388 turned out to be 25%. Besides, the ΔTm in the assay on DNA is 11.5 °C.
The like results for `CN(C)CCCNc1ccc2nnn3c4ccc(O)cc4c(=O)c1c23` were, in that order, 165% and 15.1 °C.
Regarding `CCNCCNc1ccc2nnn3c4ccc(O)cc4c(=O)c1c23`, the “Increase in survival time” value with P388 is reported as 78%. Besides, the ΔTm with DNA was found to be 7.1 °C.
For `CCN(CC)CCNc1ccc2ncn3c4ccc(C(C)(C)C)cc4c(=O)c1c23`, in that order: 0% and 2.4 °C.
For `CN(C)CCCCCNc1ccc2ncn3c4ccc(O)cc4c(=O)c1c23`, in that order: 85% and 13.1 °C.
Take `CN(C)CCNc1ccc2nnn3c4ccc(C(C)(C)C)cc4c(=O)c1c23`: the “Increase in survival time” value in the assay on P388 is reported as 0%. For the same compound, in the assay on DNA, the ΔTm is 6.8 °C.
As for `CCN(CC)CCNc1ccc2ncn3c4cc(O)ccc4c(=O)c1c23`, the “Increase in survival time” value with P388 was determined as 27%. Moreover, in the assay with DNA, the ΔTm came out at 8.3 °C.

A word on the ΔTm: it is the change in melting temperature against a reference sample.

The record behind these values is ChEMBL document CHEMBL3045087, “Physicochemical interaction of antitumor acridinone derivatives with DNA in view of QSAR studies” (2011).
